Like-named read-outs stand apart in the source and are kept apart here.
Test system: three-dimensional cultured human skin model (EPI-606X)
Experiment: Skin permeability test
Protocol: A three-dimensional cultured human skin model (EPI-606X, Kurabo Industries Ltd., area: 3.8 cm^2) was placed in a 6-well plate containing PBS solution (1 mL) so that the lower portion thereof was submerged. The human skin model was then allowed to stand undisturbed for 30 minutes in an incubator under conditions of 37° C. and a carbon dioxide concentration of 5%. Next, the PBS solution in the lower wells of the skin model was replaced with HBSS(−) solution (Hanks solution, 1 mL) (to be referred to as the “receiver liquid”) and the sample solution (700 μL) obtained above was administered onto the skin model. The skin model was then allowed to stand undisturbed for 24 hours in an incubator under conditions of 37° C. and a carbon dioxide concentration of 5%.
After allowing to stand undisturbed for 24 hours, the sample solution on the skin model was removed using a pipette followed by removing the skin model from the wells and washing with PBS (−) solution. Next, a section of the skin model was cut out and placed in a 2 mL tube. Methanol (1 mL) and stainless steel beads (Tomy Co., Ltd., diameter: 5.5 mm) were added to the tube followed by crushing the section using a Multi Beads Shocker (Yasui Kikai Corp.) under conditions of 10 seconds at 2000 rpm for 10 cycles.
Following crushing, the resulting solution was transferred to a 2 mL Eppendorf tube and centrifuged for 5 minutes at 12000 rpm followed by filtering the supernatant with a filter (pore diameter: 0.22 μm) to obtain a skin model extract.
Next, the amounts of test substance in the skin model extract and receiver liquid were quantified for each test substance under the previously described HPLC Analysis Conditions 1. The total amount of test substance absorbed by the skin model in each well was calculated from the quantified value of test substance in the skin model extract. In addition, the quantified value of test substance in the receiver liquid was used as the amount of test substance that permeated the skin model. The total value A (μg) of the total amount of test substance absorbed by the skin model and the amount of test substance that permeated the skin model was then calculated.
The permeation rate (%) through the skin model for each test substance administered to the skin model was calculated according to the following equation (i). Moreover, the aforementioned skin permeability test was carried out three times for each test substance followed by calculation of each permeation rate (%). […] Furthermore, the value shown in front of the (±) symbol in the column entitled “Permeation Rate (%)” indicates the average value of the three results, while the number after the (±) symbol indicates the range of variation of the three results. Permeation rate (%)=(A/1400(amount of test substance administered to skin model) (μg)))×100 (i)

[1] = 0.2% by weight sample solution in PBS(-), pH 7.4, 700 μL on skin model, 24 hours, 37° C., average ± range of variation of three results
[2] = skin model, 24 hours, compared with non-acylated β-NMN or among the examples

Permeation Rate (%) (pH 7.4)	Permeation rate, comparison in words	Structure (SMILES)	Permeation Rate (%) [1] [%]	Permeation rate, comparison in words [2]
15 ± 0.4		NC(=O)c1ccc[n+]([C@@H]2O[C@H](COP(=O)([O-])O)[C@@H](O)[C@H]2O)c1 [Comparative Example 2, β-nicotinamide mononucleotide, reference compound]		
		CCCCCCCCCCCCCCCC(=O)O[C@H]1[C@@H](O)[C@H]([n+]2cccc(C(N)=O)c2)O[C@@H]1COP(=O)([O-])O [Example 1, 3′-palmitoyl-β-nicotinamide mononucleotide]	40 ± 4.7	particularly high
		CCCCCCCCCCCCCCCC(=O)O[C@@H]1[C@H](OC(=O)CCCCCCCCCCCCCCC)[C@@H](COP(=O)([O-])O)O[C@H]1[n+]1cccc(C(N)=O)c1 [Example 2, 2′,3′-dipalmitoyl-β-nicotinamide mononucleotide]	41 ± 1.7	particularly high
35 ± 4.7	particularly high	CCCCCCCCCCCC(=O)O[C@H]1[C@@H](O)[C@H]([n+]2cccc(C(N)=O)c2)O[C@@H]1COP(=O)([O-])O [Example 3, 3′-lauroyl-β-NMN]		
40 ± 4.7	particularly high	CCCCCCCCCCCC(=O)O[C@@H]1[C@H](OC(=O)CCCCCCCCCCC)[C@@H](COP(=O)([O-])O)O[C@H]1[n+]1cccc(C(N)=O)c1 [Example 4, 2′,3′-dilauroyl-β-NMN]		
31 ± 4.7		CCCCCCCC(=O)O[C@H]1[C@@H](O)[C@H]([n+]2cccc(C(N)=O)c2)O[C@@H]1COP(=O)([O-])O [Example 5, 3′-octanoyl-β-NMN]		
		CCCCCCCC(=O)OC1C(COP(=O)([O-])O)OC([n+]2cccc(C(N)=O)c2)C1OC(=O)CCCCCCC (stereo not drawn) [Example 6, 2′,3′-dioctanoyl-β-NMN]	38 ± 4.7	
29 ± 4.7		CCCCCC(=O)O[C@H]1[C@@H](O)[C@H]([n+]2cccc(C(N)=O)c2)O[C@@H]1COP(=O)([O-])O [Example 7, 3′-hexanoyl-β-NMN]		
37 ± 2.7		CCCCCC(=O)O[C@@H]1[C@H](OC(=O)CCCCC)[C@@H](COP(=O)([O-])O)O[C@H]1[n+]1cccc(C(N)=O)c1 [Example 8, 2′,3′-dihexanoyl-β-NMN]		
		CC(=O)O[C@@H]1[C@H](OC(C)=O)[C@@H](COP(=O)([O-])O)O[C@H]1[n+]1cccc(C(N)=O)c1 [Synthesis Example 1, 2′,3′-diacetyl-β-nicotinamide mononucleotide, reference compound]	16 ± 1.7	equal to that of the non-acylated β-NMN of Comparative Example 2

Structure (SMILES)	Permeation Rate (%) (pH 7.4)	Permeation rate, comparison in words	Permeation Rate (%) [1] [%]	Permeation rate, comparison in words [2]
CCCCCCCCCCCCCCCC(=O)O[C@@H]1[C@H](OC(=O)CCCCCCCCCCCCCCC)[C@@H](COP(=O)([O-])[O-])O[C@H]1[n+]1cccc(C(N)=O)c1.[Na+] [Example 11, 2′,3′-dipalmitoyl-β-NMN sodium salt]	41 ± 2.7	high permeation rate in comparison with the non-acylated β-NMN of Comparative Example 2		
